# Assay results from patent US10681909B2, “Herbicidal triazoles” (FMC Corporation, priority 2014, dated 2020).
# Legend:
# [1] = system: kochia; experiment: Test A preemergence; format: in vivo, Kochia scoparia; conditions: 0 to 100 scale (0 no effect, 100 complete control)
# How it was run: (§1)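 Weed and crop species in loam–sand blend sprayed preemergence on soil or postemergence at 2–10 cm, one- to two-leaf stage, with chemicals in surfactant-containing solvent. Injury rated visually after ~10 d in greenhouse versus untreated controls on a 0–100 scale (100 = complete control).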
# [2] = system: ragweed; experiment: Test A postemergence; format: in vivo, Ambrosia elatior; conditions: 0 to 100 scale (0 no effect, 100 complete control), approx. 10 d
# How it was run: as §1
# [3] = system: blackgrass; experiment: Test C preemergence; format: in vivo, Alopecurus myosuroides; conditions: for Plant response rating (scale of 0 to 100 where 0 is no effect and 100 is complete control): Blackgrass, preemergence; for Blackgrass plant response rating (0 to 100): Preemergence, visual rating after 13 to 15 d
# How it was run: (§2)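 Seeds were planted in loam soil plus sand and sprayed preemergence. In parallel, potted plants in a peat-based medium were sprayed postemergence at 2 to 18 cm (1- to 4-leaf stage). Compounds were formulated in non-phytotoxic solvent with surfactant.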
# [4] = system: corn; experiment: Test C preemergence; format: in vivo, Zea mays; conditions: for Plant response rating (scale of 0 to 100 where 0 is no effect and 100 is complete control): Corn, preemergence; for Corn plant response rating (0 to 100): Preemergence, visual rating after 13 to 15 d
# How it was run: as §2
# [5] = system: crabgrass, large; experiment: Test C preemergence; format: in vivo, Digitaria sanguinalis; conditions: for Plant response rating (scale of 0 to 100 where 0 is no effect and 100 is complete control): Crabgrass, Large, preemergence; for Crabgrass, Large plant response rating (0 to 100): Preemergence, visual rating after 13 to 15 d
# How it was run: as §2
# [6] = system: lambsquarters; experiment: Test C preemergence; format: in vivo, Chenopodium album; conditions: for Plant response rating (scale of 0 to 100 where 0 is no effect and 100 is complete control): Lambsquarters, preemergence; for Lambsquarters plant response rating (0 to 100): Preemergence, visual rating after 13 to 15 d
# How it was run: as §2
# [7] = system: pigweed; experiment: Test C preemergence; format: in vivo, Amaranthus retroflexus; conditions: for Plant response rating (scale of 0 to 100 where 0 is no effect and 100 is complete control): Pigweed, preemergence; for Pigweed plant response rating (0 to 100): Preemergence, visual rating after 13 to 15 d
# How it was run: as §2
# [8] = system: canarygrass; experiment: Test D preemergence; format: in vivo, Phalaris minor; conditions: for Plant response rating (0 to 100), Canarygrass: 16 g ai/ha, 0 is no effect, 100 is complete control; for Plant response rating: Canarygrass: scale 0 to 100
# Source text: (§3) Seeds of plant species selected from bluegrass (annual bluegrass, Poa annua), blackgrass (Alopecurus myosuroides), canarygrass (Phalaris minor), chickweed (common chickweed, Stellaria media), galium (catchweed bedstraw, Galium aparine), bromegrass, down (downy bromegrass, Bromus tectorum), Russian thistle (Salsola kali), field poppy (Papaver rhoeas), field violet (Viola arvensis), foxtail, green (green foxtail, Setaria viridis), deadnettle (henbit deadnettle, Lamium amplexicaule), ryegrass, Ital. (Italian ryegrass, Lolium multiflorum), kochia (Kochia scoparia), lambsquarters (Chenopodium album), oilseed rape (Brassica napus), pigweed (Amaranthus retroflexus), chamomile (scentless chamomile, Matricaria inodora), speedwell (bird's-eye speedwell, Veronica persica), barley, spring (spring barley, Hordeum vulgare), wheat, spring (spring wheat, Triticum aestivum), buckwheat, wild (wild buckwheat, Polygonum convolvulus), wild mustard (Sinapis arvensis), oat, wild (wild oat, Avena fatua), radish, wild (wild radish, Raphanus raphanistrum), […]), barley, winter (winter barley, Hordeum vulgare), and wheat, winter (winter wheat, Triticum aestivum) were planted into a silt loam soil and treated preemergence with test chemicals formulated in a non-phytotoxic solvent mixture which included a surfactant. At the same time, these species were planted in pots containing Sunshine Redi-Earth® planting medium comprising spaghnum peat moss, vermiculite, starter nutrients and dolomitic limestone and treated with postemergence applications of the test chemicals formulated in the same manner. Plants ranged in height from 2 to 18 cm (1- to 4-leaf stage). Treated plants and controls were maintained in a controlled growth environment for 14 to 21 d after which time all species were compared to controls and visually evaluated. […] A dash (-) response means no test result.
# [9] = system: radish, wild; experiment: Test D preemergence; format: in vivo, Raphanus raphanistrum; conditions: for Plant response rating (0 to 100), Radish, Wild: 16 g ai/ha, 0 is no effect, 100 is complete control; for Plant response rating: Radish, Wild: scale 0 to 100
# Source text: as §3
# [10] = system: windgrass; experiment: Test D preemergence; format: in vivo, Apera spica-venti; conditions: for Plant response rating (0 to 100), Windgrass: 16 g ai/ha, 0 is no effect, 100 is complete control; for Plant response rating: Windgrass: scale 0 to 100
# Source text: as §3
# [11] = system: canarygrass; experiment: Test D postemergence; format: in vivo, Phalaris minor; conditions: scale 0 to 100
# Source text: as §3
# [12] = system: pigweed; experiment: Test D postemergence; format: in vivo, Amaranthus retroflexus; conditions: scale 0 to 100
# Source text: as §3
# [13] = system: windgrass; experiment: Test D postemergence; format: in vivo, Apera spica-venti; conditions: scale 0 to 100
# Source text: as §3
smiles,measurement,setting,value
FC(F)(F)COc1nc(-c2ccccc2)nn1Cc1ccnc(C(F)(F)F)c1 [Compound 24],"Plant response rating, Kochia",[1]; 125 g ai/ha,80
same,"Plant response rating, Kochia","[1]; 500 g ai/ha, approx. 10 d",90
same,"Plant response rating, Ragweed",[2]; 125 g ai/ha,50
same,"Plant response rating, Ragweed",[2]; 500 g ai/ha,70
same,Plant response rating (scale of 0 to 100 where 0 is no effect and 100 is complete control),[3]; 125 g ai/ha,90
same,Plant response rating (scale of 0 to 100 where 0 is no effect and 100 is complete control),[3]; 250 g ai/ha,90
same,Blackgrass plant response rating (0 to 100),[3]; 31 g ai/ha,10
same,Blackgrass plant response rating (0 to 100),[3]; 62 g ai/ha,60
same,Plant response rating (scale of 0 to 100 where 0 is no effect and 100 is complete control),[4]; 125 g ai/ha,25
same,Plant response rating (scale of 0 to 100 where 0 is no effect and 100 is complete control),[4]; 250 g ai/ha,40
same,Corn plant response rating (0 to 100),[4]; 31 g ai/ha,0
same,Corn plant response rating (0 to 100),[4]; 62 g ai/ha,10
same,Plant response rating (scale of 0 to 100 where 0 is no effect and 100 is complete control),[5]; 125 g ai/ha,100
same,Plant response rating (scale of 0 to 100 where 0 is no effect and 100 is complete control),[5]; 250 g ai/ha,100
same,"Crabgrass, Large plant response rating (0 to 100)",[5]; 31 g ai/ha,98
same,"Crabgrass, Large plant response rating (0 to 100)",[5]; 62 g ai/ha,98
same,Plant response rating (scale of 0 to 100 where 0 is no effect and 100 is complete control),[6]; 125 g ai/ha,85
same,Plant response rating (scale of 0 to 100 where 0 is no effect and 100 is complete control),[6]; 250 g ai/ha,85
same,Lambsquarters plant response rating (0 to 100),[6]; 31 g ai/ha,60
same,Lambsquarters plant response rating (0 to 100),[6]; 62 g ai/ha,75
same,Plant response rating (scale of 0 to 100 where 0 is no effect and 100 is complete control),[7]; 125 g ai/ha,100
same,Plant response rating (scale of 0 to 100 where 0 is no effect and 100 is complete control),[7]; 250 g ai/ha,100
same,Pigweed plant response rating (0 to 100),[7]; 31 g ai/ha,100
same,Pigweed plant response rating (0 to 100),[7]; 62 g ai/ha,100
same,"Plant response rating (0 to 100), Canarygrass",[8],55
same,Plant response rating: Canarygrass,[8]; 31 g ai/ha,50
same,Plant response rating: Canarygrass,[8]; 62 g ai/ha,60
same,Plant response rating: Canarygrass,[8]; 125 g ai/ha,75
same,"Plant response rating (0 to 100), Radish, Wild",[9],45
same,"Plant response rating: Radish, Wild",[9]; 62 g ai/ha,75
same,"Plant response rating: Radish, Wild",[9]; 125 g ai/ha,100
same,"Plant response rating (0 to 100), Windgrass",[10],0
same,Plant response rating: Windgrass,[10]; 62 g ai/ha,65
same,Plant response rating: Windgrass,[10]; 125 g ai/ha,100
same,Plant response rating: Canarygrass,[11]; 16 g ai/ha,45
same,Plant response rating: Canarygrass,[11]; 31 g ai/ha,55
same,Plant response rating: Canarygrass,[11]; 62 g ai/ha,60
same,Plant response rating: Canarygrass,[11]; 125 g ai/ha,70
same,Plant response rating: Pigweed,[12]; 16 g ai/ha,95
same,Plant response rating: Pigweed,[12]; 31 g ai/ha,100
same,Plant response rating: Pigweed,[12]; 62 g ai/ha,100
same,Plant response rating: Pigweed,[12]; 125 g ai/ha,100
same,Plant response rating: Windgrass,[13]; 16 g ai/ha,20
same,Plant response rating: Windgrass,[13]; 31 g ai/ha,35
same,Plant response rating: Windgrass,[13]; 62 g ai/ha,45
same,Plant response rating: Windgrass,[13]; 125 g ai/ha,60
CCOc1nc(-c2ccccc2)nn1Cc1ccnc(C(F)(F)F)c1 [Compound 27],"Plant response rating, Kochia",[1]; 125 g ai/ha,100
same,"Plant response rating, Kochia","[1]; 500 g ai/ha, approx. 10 d",100
same,"Plant response rating, Ragweed",[2]; 125 g ai/ha,50
same,"Plant response rating, Ragweed",[2]; 500 g ai/ha,70
same,Plant response rating (scale of 0 to 100 where 0 is no effect and 100 is complete control),[3]; 125 g ai/ha,50
same,Plant response rating (scale of 0 to 100 where 0 is no effect and 100 is complete control),[3]; 250 g ai/ha,90
same,Blackgrass plant response rating (0 to 100),[3]; 31 g ai/ha,5
same,Blackgrass plant response rating (0 to 100),[3]; 62 g ai/ha,5
same,Plant response rating (scale of 0 to 100 where 0 is no effect and 100 is complete control),[4]; 125 g ai/ha,55
same,Plant response rating (scale of 0 to 100 where 0 is no effect and 100 is complete control),[4]; 250 g ai/ha,60
same,Corn plant response rating (0 to 100),[4]; 31 g ai/ha,25
same,Corn plant response rating (0 to 100),[4]; 62 g ai/ha,40
same,Plant response rating (scale of 0 to 100 where 0 is no effect and 100 is complete control),[5]; 125 g ai/ha,100
same,Plant response rating (scale of 0 to 100 where 0 is no effect and 100 is complete control),[5]; 250 g ai/ha,100
same,"Crabgrass, Large plant response rating (0 to 100)",[5]; 31 g ai/ha,100
same,"Crabgrass, Large plant response rating (0 to 100)",[5]; 62 g ai/ha,100
same,Plant response rating (scale of 0 to 100 where 0 is no effect and 100 is complete control),[6]; 125 g ai/ha,98
same,Plant response rating (scale of 0 to 100 where 0 is no effect and 100 is complete control),[6]; 250 g ai/ha,100
same,Lambsquarters plant response rating (0 to 100),[6]; 31 g ai/ha,90
same,Lambsquarters plant response rating (0 to 100),[6]; 62 g ai/ha,98
same,Plant response rating (scale of 0 to 100 where 0 is no effect and 100 is complete control),[7]; 125 g ai/ha,100
same,Plant response rating (scale of 0 to 100 where 0 is no effect and 100 is complete control),[7]; 250 g ai/ha,100
same,Pigweed plant response rating (0 to 100),[7]; 31 g ai/ha,100
same,Pigweed plant response rating (0 to 100),[7]; 62 g ai/ha,100
same,"Plant response rating (0 to 100), Canarygrass",[8],35
same,Plant response rating: Canarygrass,[8]; 31 g ai/ha,55
same,Plant response rating: Canarygrass,[8]; 62 g ai/ha,75
same,Plant response rating: Canarygrass,[8]; 125 g ai/ha,98
same,"Plant response rating (0 to 100), Radish, Wild",[9],75
same,"Plant response rating: Radish, Wild",[9]; 62 g ai/ha,85
same,"Plant response rating: Radish, Wild",[9]; 125 g ai/ha,100
same,"Plant response rating (0 to 100), Windgrass",[10],5
same,Plant response rating: Windgrass,[10]; 62 g ai/ha,80
same,Plant response rating: Windgrass,[10]; 125 g ai/ha,95
same,Plant response rating: Canarygrass,[11]; 16 g ai/ha,50
same,Plant response rating: Canarygrass,[11]; 31 g ai/ha,65
same,Plant response rating: Canarygrass,[11]; 62 g ai/ha,70
same,Plant response rating: Canarygrass,[11]; 125 g ai/ha,60
same,Plant response rating: Pigweed,[12]; 16 g ai/ha,100
same,Plant response rating: Pigweed,[12]; 31 g ai/ha,100
same,Plant response rating: Pigweed,[12]; 62 g ai/ha,100
same,Plant response rating: Pigweed,[12]; 125 g ai/ha,100
same,Plant response rating: Windgrass,[13]; 16 g ai/ha,60
same,Plant response rating: Windgrass,[13]; 31 g ai/ha,65
same,Plant response rating: Windgrass,[13]; 62 g ai/ha,70
same,Plant response rating: Windgrass,[13]; 125 g ai/ha,70
